The values below come from patent US4315928A, “N-Aminosulfenyl carbamate compounds, compositions and use” (priority 1975, dated 1982).

A short description of one data set: in vivo. Conditions: rat, in vivo, po. The procedure:
These compositions were also evaluated to determine their peroral toxicity to mammals by conventional methods. The animal selected for this experiment was the rat.

The test system of another data set is green beans. Nature of the data set: Phytotoxicity Test, green beans. Conditions: ten days. Also on record: key: A rating of 1 indicates no perceptible injury; ratings of 2, 3 and 4 indicate intermediate degrees of injury; ratings of 2, 3 and 4 indicate intermediate degrees of injury; ratings of 2, 3 and 4 indicate intermediate degrees of injury; 5 indicates the plant was dead. It is filed as in vivo. The procedure:
(§1) Suspensions of the test compounds were prepared by dissolving one gram of compound in 50 milliliters of acetone in which had been dissolved 0.1 gram (10 percent of the weight of compound) of an alkylphenoxy polyethoxyethanol surfactant, as an emulsifying or dispersing agent. The resulting solution was mixed into 150 milliliters of water to give roughly 200 milliliters of a suspension containing the compound in finely divided form. The thus-prepared stock suspension contained 0.5 percent by weight of compound. The test concentrations in parts per million by weight employed in the tests described hereinbelow were obtained by appropriate dilutions of the stock suspension with water. The test procedures were as follows:
(§2) Experiments were also conducted to determine the phytotoxicity of representative compositions with respect to healthy fresh plants. Solutions of the compounds were prepared as described above to provide a concentration of 2500 parts per million of the test compound. The test plants were sprayed in accordance with the procedure described above for the Mite Foliage Spray Test so as to deliver approximately 100 milliliters of test solution to the leaves of each plant tested. The sprayed plants and controls were set aside for approximately one hour to allow the solutions to dry and were then placed in the greenhouse. After ten days the plants were visually inspected to determine the extent of foliage injury. A rating of 1 indicates no perceptible injury; 5 indicates the plant was dead and ratings of 2, 3 and 4 indicate intermediate degrees of injury based upon the number and extent to which leaves were injured.

In another data set the test system is corn. Nature of the data set: Phytotoxicity Test, corn. It is filed as in vivo. Also on record: key: A rating of 1 indicates no perceptible injury; ratings of 2, 3 and 4 indicate intermediate degrees of injury; ratings of 2, 3 and 4 indicate intermediate degrees of injury; ratings of 2, 3 and 4 indicate intermediate degrees of injury; 5 indicates the plant was dead. Conditions: ten days. The procedure: as §1, §2

A further data set has as its system tomato. Kind of data set: Phytotoxicity Test, tomato. Conditions: ten days. Also on record: key: A rating of 1 indicates no perceptible injury; ratings of 2, 3 and 4 indicate intermediate degrees of injury; ratings of 2, 3 and 4 indicate intermediate degrees of injury; ratings of 2, 3 and 4 indicate intermediate degrees of injury; 5 indicates the plant was dead. It counts as in vivo. The method, then: as §1, §2

The test system of the next data set is cotton. Nature of the data set: Phytotoxicity Test, cotton. It is filed as in vivo. Also on record: key: A rating of 1 indicates no perceptible injury; ratings of 2, 3 and 4 indicate intermediate degrees of injury; ratings of 2, 3 and 4 indicate intermediate degrees of injury; ratings of 2, 3 and 4 indicate intermediate degrees of injury; 5 indicates the plant was dead. Conditions: ten days. The procedure: as §1, §2

For the next data set, the system named is soybeans. Nature of the data set: Phytotoxicity Test, soybeans. It is filed as in vivo. Also on record: key: A rating of 1 indicates no perceptible injury; ratings of 2, 3 and 4 indicate intermediate degrees of injury; ratings of 2, 3 and 4 indicate intermediate degrees of injury; ratings of 2, 3 and 4 indicate intermediate degrees of injury; 5 indicates the plant was dead. Conditions: ten days. The procedure: as §1, §2

In data set [1] the test system is bean aphid (Aphis fabae Scop.). Nature of the data set: whole plant or invertebrate. Conditions: foliar, 24 h, read-out: Insect Toxicity, % Kill at 250 ppm, BA.
Data set [2] has as its system two-spotted mite (Tetranychus urticae Koch). Nature of the data set: whole plant or invertebrate. Conditions: foliar, 144 h, read-out: Insect Toxicity, % Kill at 250 ppm, TSM.
For data set [3], the system named is southern armyworm (Prodenia eridania, (Cram.)). Kind of data set: whole plant or invertebrate. Conditions: Spodoptera eridania, 72 h, read-out: Insect Toxicity, % Kill at 250 ppm, SAW.
Data set [4] deals with Mexican bean beetle (Epilachna varivestis, Muls.). Nature of the data set: whole plant or invertebrate. Conditions: 72 h, read-out: Insect Toxicity, % Kill at 250 ppm, MBB.
In data set [5] the test system is house flies (Musca domestica, L.). Kind of data set: whole plant or invertebrate. Conditions: po, 24 h, read-out: Insect Toxicity, % Kill at 250 ppm, HF.

`CN(SN1CCOCC1)C(=O)ON=C1CSCCS1` [Compound 5, 2-N-[N'-Methyl-N'-(4-Morpholinosulfenyl)Carbamoyloxy]imino-1,4-Dithiane] returned an LD50 in “in vivo” of 19.8 mg/kg. The “Crop Phytotoxicity, Injury Rating at 2500 ppm, GB” value (from here on “Crop Phytotoxicity … GB”) in the data set on green beans is 1. Besides, in the data set with corn, the “Crop Phytotoxicity, Injury Rating at 2500 ppm, CN” value (shortened to “Crop Phytotoxicity … CN”) was 1. Moreover, the “Crop Phytotoxicity, Injury Rating at 2500 ppm, TOM” value (“Crop Phytotoxicity … TOM” below) with tomato worked out at 1. Moreover, the “Crop Phytotoxicity, Injury Rating at 2500 ppm, COT.” value (shortened to “Crop Phytotoxicity … COT.”) in the data set on cotton is on record as 1. In addition, the “Crop Phytotoxicity, Injury Rating at 2500 ppm, SOYBN.” value (from here on “Crop Phytotoxicity … SOYBN.”) in the data set with soybeans was found to be 1. The mortality at 250 ppm in data set [1], in data set [2], in [3], in data set [4] and in [5] was 100% each time.

On to `CSC(C)(C)C=NOC(=O)N(C)SN1CCOCC1` [Compound 6, 2-Methyl-2-(Methylthio)propionaldehyde O-[N-Methyl-N-(4-Morpholinosulfenyl)Carbamoyl]oxime], for which, in the data set “in vivo”, the LD50 is 1.2 mg/kg. Also, in the data set on green beans, the “Crop Phytotoxicity … GB” value is reported as 1. Moreover, the “Crop Phytotoxicity … CN” value with corn was found to be 1. Further, in the data set on tomato, the “Crop Phytotoxicity … TOM” value was found to be 1. For the same compound, the “Crop Phytotoxicity … COT.” value with cotton turned out to be 1. For the same compound, the “Crop Phytotoxicity … SOYBN.” value in the data set on soybeans was 1. Besides, the mortality at 250 ppm in [1] came out at 100%; in data set [2] it was 100%; in data set [3] it was 10%; in data set [4], 0%; in [5], 100%.

In “in vivo”, `CC(=NOC(=O)N(C)SN1CCOCC1)SC(C)C` [Compound 7, S-Isopropyl N-[N'-Methyl-N'-(4-Morpholinosulfenyl)carbamoyloxy]thioacetimidate] showed an LD50 of 28.1 mg/kg. In addition, the “Crop Phytotoxicity … GB” value with green beans was 2. For the same compound, the “Crop Phytotoxicity … CN” value in the data set on corn is listed as 1. Further, in the data set on tomato, the “Crop Phytotoxicity … TOM” value is reported as 1. Also, the “Crop Phytotoxicity … COT.” value in the data set with cotton came to 1. Moreover, the “Crop Phytotoxicity … SOYBN.” value with soybeans stood at 1. The mortality at 250 ppm in data set [1], in [2], in data set [3], in data set [4] and in [5] was 100% throughout.

With `CC(=NOC(=O)N(C)SN1CCOCC1)SCCC#N` [Compound 8, S-(2-Cyanoethyl)-N-[N'-Methyl-N'-(4-Morpholinosulfenyl)carbamoyloxy]thioacetimidate], the LD50 in “in vivo” amounted to 22 mg/kg. Further, the “Crop Phytotoxicity … GB” value with green beans is on record as 1. Moreover, the “Crop Phytotoxicity … CN” value in the data set on corn is 1. Also, the “Crop Phytotoxicity … TOM” value in the data set with tomato is on record as 1. The “Crop Phytotoxicity … COT.” value in the data set with cotton is 1. Moreover, the “Crop Phytotoxicity … SOYBN.” value with soybeans is 1. The mortality at 250 ppm in [1], in [2], in data set [3], in data set [4] and in data set [5] was 100% in each case.

In “in vivo”, `CC1OCSC1=NOC(=O)N(C)SN1CCOCC1` (centres unmarked) [Compound 9, 5-Methyl-4-N-[N'-Methyl-N'-(4-Morpholinosulfenyl)carbamoyloxy]imino-1,3-Oxathiolane] showed an LD50 of 16 mg/kg. Also, in the data set with green beans, the “Crop Phytotoxicity … GB” value worked out at 1. Moreover, the “Crop Phytotoxicity … CN” value in the data set on corn was 1. In the data set on tomato, the “Crop Phytotoxicity … TOM” value was determined as 2. Moreover, the “Crop Phytotoxicity … COT.” value with cotton is 1. For the same compound, in the data set on soybeans, the “Crop Phytotoxicity … SOYBN.” value worked out at 2. Besides, the mortality at 250 ppm in [1], in [2], in data set [3], in [4] and in [5] was 100% in each case.

`CN(SN1CCOCC1)C(=O)ON=CC(C)(C)C#N` [Compound 10, 2-Cyano-2-Methylpropionaldehyde O-[N-Methyl-N-(4-Morpholinosulfenyl)Carbamoyl]oxime]: the “Crop Phytotoxicity … GB” value in the data set on green beans is 1. The “Crop Phytotoxicity … CN” value with corn is listed as 1. Also, the “Crop Phytotoxicity … TOM” value in the data set with tomato is 1. Further, the “Crop Phytotoxicity … COT.” value in the data set on cotton is 3. Besides, the “Crop Phytotoxicity … SOYBN.” value in the data set on soybeans is 1. Also, the mortality at 250 ppm in data set [1], in [2], in data set [3], in [4] and in data set [5] was 100% each time.

On to `CSC(C)=NOC(=O)N(SN1CCOCC1)C(C)C` [Compound 14, S-Methyl-N-[N'-Isopropyl-N'-(4-Morpholinosulfenyl)Carbamoyloxy]Thioacetimidate], for which the “Crop Phytotoxicity … GB” value in the data set on green beans is listed as 1. Also, the “Crop Phytotoxicity … CN” value in the data set with corn is given as 1. Besides, the “Crop Phytotoxicity … TOM” value with tomato is 1. Moreover, the “Crop Phytotoxicity … COT.” value in the data set with cotton came out at 1. The “Crop Phytotoxicity … SOYBN.” value with soybeans was 1. Besides, the mortality at 250 ppm in data set [1] worked out at 100%; in [2], 0%; in data set [3] it was 0%; in data set [4], 0%; in [5], 0%.

With `CN(SN1CCOCC1)C(=O)ON=C1SCC(=O)NC1(C)C` [Compound 16, 3,3-Dimethyl-2-N-[N'-Methyl-N'-(4-Morpholinosulfenyl)Carbamoyloxy]imino-5-Oxo-Perhydro-1,4-Thiazine], the “Crop Phytotoxicity … GB” value in the data set on green beans was 1. Further, the “Crop Phytotoxicity … CN” value in the data set on corn came out at 1. The “Crop Phytotoxicity … TOM” value with tomato came out at 1. The “Crop Phytotoxicity … COT.” value with cotton is listed as 1. For the same compound, in the data set on soybeans, the “Crop Phytotoxicity … SOYBN.” value was determined as 1. In addition, the mortality at 250 ppm in data set [1], in [2], in data set [3], in data set [4] and in data set [5] was 100% in each case.

The compound `CN(C)SN(C)C(=O)ON=C1CSCCS1` [Compound 23, 2-N-[N'-Methyl-N'-(Dimethylaminosulfenyl)carbamoyloxy]imino-1,4-Dithiane] displayed an LD50 in the data set “in vivo” of 15 mg/kg. The “Crop Phytotoxicity … GB” value with green beans was determined as 1. For the same compound, the “Crop Phytotoxicity … CN” value in the data set with corn turned out to be 1. Also, in the data set with tomato, the “Crop Phytotoxicity … TOM” value is on record as 1. In addition, in the data set with cotton, the “Crop Phytotoxicity … COT.” value is 2. Moreover, the “Crop Phytotoxicity … SOYBN.” value with soybeans is 1. For the same compound, the mortality at 250 ppm in [1], in [2], in [3], in data set [4] and in data set [5] was 100% in each case.

Compound `CC(=NOC(=O)N(C)SN(C)C)SC(C)C` [Compound 24, S-Isopropyl-N-[N'-Methyl-N'-(Dimethylaminosulfenyl)carbamoloxy]thioacetimidate] had an LD50 in “in vivo” of 28.3 mg/kg. Moreover, the “Crop Phytotoxicity … GB” value with green beans is given as 2. The “Crop Phytotoxicity … CN” value in the data set with corn was 1. For the same compound, the “Crop Phytotoxicity … TOM” value with tomato came out at 2. The “Crop Phytotoxicity … COT.” value in the data set with cotton is given as 2. Also, the “Crop Phytotoxicity … SOYBN.” value in the data set on soybeans came out at 3. The mortality at 250 ppm in data set [1], in data set [2], in [3], in [4] and in data set [5] was 100% each time.
